The text below walks through data of PMC3404088, “Development of a Small D-Enantiomeric Alzheimer’s Amyloid-β Binding Peptide Ligand for Future In Vivo Imaging Applications” (PLoS ONE, 2012).

Assay [1] deals with T1, Aβ1–42 fibrils (Homo sapiens, UniProt P05067).
T1 construct: Aβ1–42 was dissolved in hexafluoroisopropanol (HFIP)
Nature of the assay: Surface plasmon resonance (Biacore 1000), semi-quantitative binding to immobilized Aβ1–42 fibrils. To be noted: 50 µg/ml, PBS pH 7.4. Here is the method: Aβ1–42 was dissolved in hexafluoroisopropanol (HFIP). After overnight incubation, HFIP was removed by evaporation. The Aβ1–42 film was dissolved in PBS buffer pH 7.4 to a concentration of 1 mg/ml and incubated for 7 days at 37°C. For the measurements, a Biacore 1000 (GE Healthcare) instrument was used. Aβ1–42 fibrils (6800 RU) were immobilized on a CM5 sensorchip (GE Healthcare) via amine coupling. The running and sample buffer was PBS, pH 7.4. To allow comparison between the ACI-80 compounds, but to avoid potential over-interpretation of the data by fitting multiple k on and k off values for a yet undefined number of different binding sites, only two values have been taken for further evaluation. Response units achieved under identical injection conditions allow comparison of binding strengths of the compounds. Dissociation rates among the compounds have been compared by measuring the remaining response units 60 s after end of injection as a measure for dissociation (k off). All measurements have been carried out using the same flow cells with identical concentrations and injection conditions. ACI-80-Kϕ derivatives were injected as analytes in a concentration of 50 µg/ml at a flow rate of 5 µl/min for 2 minutes at ambient temperature. The data were evaluated using BiaEvaluation 4.1. The interactions between Aβ1–42 and ACI-80-Kϕ derivatives are given in resonance units (RU) and in % of ACI-80-Kϕ response units. […] Aβ1–42 fibrils were immobilized on a Biacore sensor-chip as described in the methods section, and the interactions of the ϕ-labeled ACI-80 derivatives were measured and compared with original ACI-80-Kϕ. […] Therefore we decided for semi-quantitative comparison between all compounds only. The maximal responses in resonance units (RU) of the ϕ-labeled ACI-80 derivatives during the analyte injection and the remaining response 60 s after injection end (as a semi-quantitative measure for the dissociation rate), have been related to the respective values obtained from identical concentrations of ACI-80-Kϕ in percent.
In general terms: Surface plasmon resonance follows binding to a sensor surface in real time, without labels.

In assay [2] the target is T2, Aβ1–42 monomers (Homo sapiens, UniProt P05067).
T2 construct: Aβ1–42 peptide film was prepared from lyophilized powder (Bachem); purchased Bachem
The experiment in a line: ELISA, compound binding to Aβ1–42 peptide film (predominantly monomers). To be noted: 10 µg/ml compound; for binding value, binding Aβ1–42 monomers: optical density after pNPP incubation. Here is the method: (§1) Aβ1–42 peptide film was prepared from lyophilized powder (Bachem). The powder was reconstituted in HFIP to a final concentration of 1 mM, sonicated for 15 min at room temperature (RT), agitated overnight (ON), and aliquoted into non-siliconized microcentrifuge tubes (12 µl corresponding to 55 µg). The HFIP was evaporated under a stream of argon. The resulting peptide film was vacuum dried for 10 min and stored at -80°C. For direct use as peptide film, an aliquot of Aβ1–42 peptide film was reconstituted with 0.54% dimethylsulphoxide (DMSO) in phosphate buffered saline (PBS) to obtain a final concentration of 10 µg/ml and then used for the ELISA as described below. To prepare fibrils, 55 µg aliquot of peptide film was dissolved in 55 µl of 50 mM Tris-HCl, pH 7.4 and incubated at 37°C for five days. Next, the sample was centrifuged (10’000 rpm for 5 min) and the pellet was diluted in 50 mM Tris-HCl, pH 7.4.
(§2) Aβ1–42 peptide preparations were diluted in 0.05 M bicarbonate-carbonate buffer pH 9.6, to the final concentration of 10 µg/ml and coated onto ELISA plates (MaxiSorp, Nunc). After blocking (PBS; 0.05% Tween; 1% BSA), plates were incubated with 2- or 3-fold dilutions of D-compounds (starting concentration: 10 µg/ml) and incubated for 2 h at 37°C. Plates were then washed and incubated for 2 h at 37°C with the detection antibody Rabbit-a-fluorescein isothiocyanate-AP (Sigma; 1∶10’000 dilution) followed by the incubation for 2.5 h at room temperature (RT) with 1 mg/ml of phosphatase substrate (pNPP, Sigma). The absorbance signal was read at 405 nm wavelength using a Tecan plate reader (Tecan Group Lt, Männedorf, Switzerland).
(§3) ELISA plates (MaxiSorp, Nunc) were coated with anti-Aβ antibody 6E10 (Covance) at a concentration of 5 µg/ml. Either monomeric Aβ1–42 peptide film (mainly monomeric) or Aβ1–42 fibrils, which were prepared as described above, were diluted in PBS to the final concentration 10 µg/ml and mixed with 10-fold dilutions of D-peptide compounds in Eppendorf tubes (starting concentration of D-peptide compounds: 10 µg/ml). The tubes were incubated for 2 h at 37°C. Next, samples were distributed onto the ELISA plate and kept for 2 h at 37°C. Plates were washed and incubated for 2 h at 37°C with the detection antibody Rabbit-a-fluorescein isothiocyanate-AP (Sigma; 1∶10′000 dilution) following the incubation overnight (ON) at RT with 1 mg/ml of phosphatase substrate (pNPP, Sigma). The absorbance signal was read at 405 nm wavelength using the Tecan plate reader (Tecan Group Ltd, Männedorf, Switzerland).
(§4) To verify the SPR results, ELISA was employed to assay the interaction of the ACI-80 derivatives ACI-80-Kϕ, ACI-81-Kϕ, ACI-82-Kϕ, ACI-83-Kϕ, ACI-84-Kϕ, ACI-85-Kϕ, ACI-86-Kϕ, ACI-87-Kϕ, [^19F]-ACI-87-Kϕ, ACI-88-Kϕ, [^19F]-ACI-88-Kϕ, ACI-89-Kϕ, [^19F]-ACI-89-Kϕ) with Aβ1–42 fibrils and Aβ peptide film in solution containing mostly monomers and smaller oligomers (Table 4). To avoid any bias by possible conformational influences the ELISA has been carried out in two versions, once with immobilized antibody and once with immobilized Aβ1–42 as described in the methods section. Both assays yielded similar results and confirmed each other. […] Panels A and B in Figure 2 show the results for binding to Aβ1–42 fibrils and panels C and D in Figure 2 show the results for binding to freshly prepared Aβ1–42 peptide film, which contains mostly monomeric Aβ. In Table 4, the performance of the peptides is expressed relative to that of ACI-80-Kϕ.
(An ELISA detects its analyte on a solid surface through an enzyme-linked reagent.)

Assay [3] deals with T1, Aβ1–42 fibrils. Nature of the assay: ELISA, compound binding to Aβ1–42 fibrils. To be noted: for binding value, binding Aβ1–42 fibrils: optical density after pNPP incubation. Here is the method: as §1, §2, §3, §4
In assay [4] the target is T3, Aβ plaques in brain sections of transgenic APP (V717I) x PS1 (A246E) mice (Homo sapiens, UniProt P05067).
T3 construct: triple image overlay of respective stains reveal that the ϕ-compounds identify plaques; from tissue; host or cells: brain cryosections of APP (V717I) x PS1 (A246E) transgenic mice
The experiment in a line: Ex vivo staining of mouse brain slices by FITC labeled compounds. To be noted: 0.01 mg/ml ϕ-labeled compound, 2 h; 10 µm cryostat sections; fluorescence microscopy. How it is done: In vitro tissue section staining was performed according to previously described protocols with slight modifications. Mouse brains were obtained from male transgenic (tg) APP (London mutation V717l) x PS1 (A246E) mice aged 13–21 months and from female wild type (wt) mice aged 9–10 months. The mice were anesthetized and transcardially perfused with saline. The brains were removed and snap frozen. 10 µm thick sagittal cryostat sections through the whole mouse brain were produced and mounted onto glass slides. ϕ-labeled compounds were applied to investigate binding. Thus, the slides were thawed, washed in PBS and fixed in 4% paraformaldehyde (20 min at RT) just before incubation with ϕ-labeled compounds. One series of sections was treated only with fluorescent compounds (0.01 mg/ml, incubation time 2 h) while another series of sections were incubated with anti-Aβ antibody 6E10 at 1∶500 dilution (SIG-39320, Covance; final antibody concentration was 2 µg/ml) in addition to ϕ-labeled compounds (0.01 mg/ml). The slices were washed in PBS. The sections incubated with ϕ-labeled compound and 6E10 antibody were further incubated for 2 h at RT with Goat-anti-Mouse IgG1– AlexaFluor 555 (A21127, Invitrogen, 1∶1000 dilution) and washed with PBS. Finally, all sections were counterstained with 4’–6-Diamidino-2-phenylindole (DAPI, 32670, Sigma, incubation 5 min at RT) for the visualization of cell nuclei. The slides were mounted using Prolong Gold Antifade mounting medium (P36930, Invitrogen) and coverslipped.
The tissues were analyzed using a fluorescent Zeiss Axioscope 2 Plus microscope using the AxioVision 4 image analysis software.
A further series of slices was stained using a primary anti-fluorescein isothiocyanate antibody combined with alkaline phosphatase reaction for visualization of ϕ-labeled peptides. Briefly, the sections were treated with blocking solution (10% normal goat serum (NGS), 0.25% Triton X-100 in PBS for 1 h at RT) and incubated with primary antibody (rabbit-anti-FITC; Invitrogen) at a dilution of 1∶500. The sections were then washed and incubated for 2 h at RT with the secondary antibody goat-anti-rabbit-alkaline phosphatase (Sigma) at a dilution of 1∶100. After washing, the slides were incubated with BCIP/NBT substrate (Sigma) for 3 min, washed, dehydrated and mounted using Eukitt mounting medium.

The mark [5] stands for this setting: value of one single experiment only.
[6] abbreviates: 10 µg/ml compound, value of one single experiment only.

“QSHYRHISPAQKK[^19F]ϕ [[^19F]-ACI-87-Kϕ, fluorinated ϕ-labeled ACI-87]”: the “SPR response as compared to ACI-80-Kϕ” value in assay [1] is reported as “decreased response in comparison to the compound without label”. The “binding value, binding Aβ1–42 monomers” value in assay [2] (setting [5]) is reported as “*0.86”. For the same substance, the “ELISA binding to Aβ1–42” value in assay [3] is on record as “bound well to Aβ1–42 fibrils”. Further, the “binding value, binding Aβ1–42 fibrils” value in assay [3] (setting [6]) was “*1.26”. Moreover, the “staining / recognition of Aβ plaques” value in assay [4] was “readily recognized amyloid plaques”.
In the case of “SHYRHISPAQKK[^19F]ϕ [[^19F]-ACI-88-Kϕ, fluorinated ϕ-labeled ACI-88]”, the “off-rate based on remaining response 60 s after injection end” value in assay [1] was “slowest off-rate of all tested compounds”. For the same substance, the “binding value, binding Aβ1–42 monomers” value in assay [2] (setting [5]) is “*1.05”. For the same substance, the “ELISA binding to Aβ1–42” value in assay [3] was “bound well to Aβ1–42 fibrils”. The “binding value, binding Aβ1–42 fibrils” value in assay [3] (setting [6]) is “*1.76”. In addition, the “staining / recognition of Aβ plaques” value in assay [4] is on record as “readily recognized amyloid plaques”.
With “ZSHYRHISPAQVKϕ [ACI-81-Kϕ, ϕ-labeled ACI-80 derivative, Q1Z]”, in assay [1], the “SPR response as compared to ACI-80-Kϕ” value was “not significantly increased”. Moreover, in assay [2] (ACI-80-Kϕ = 100), the “% binding relative to ACI-80-Kϕ, Aβ1–42 monomers” value is 27%. In addition, the “binding value, binding Aβ1–42 monomers” value in assay [2] (average of two or three experiments) is reported as 0.13. The “% binding relative to ACI-80-Kϕ, Aβ1–42 fibrils” value in assay [3] (10 µg/ml compound, ACI-80-Kϕ = 100) is reported as 22%. In addition, in assay [3] (10 µg/ml compound, average of two or three experiments), the “binding value, binding Aβ1–42 fibrils” value is reported as 0.20.
